Assay results from patent US8487104B2, “KAT II inhibitors” (Pfizer Inc., priority 2010, dated 2013).
Counter-ions that a name gives are not always drawn. Like-named read-outs stand apart in the source and are kept apart here.

Legend:
[1] = Reactive Metabolite Assay; type: in vitro ADME
Experimental: [formula] Reactive Metabolite Assay Protocol Metabolite activity in Table 2 is measured using a reactive metabolite assay protocol as described in Reactive Metabolite assay protocol: See J. R. Soglia et al., J. Pharm. Biomed. Anal. 2004, 36, 105-116.

[2] = biological target: human KATII enzyme (Homo sapiens, UniProt Q8N5Z0); experiment: KATII Kinetic Assay (kinact/KI determination); type: biochemical; settings: read-out: hKATII kinact/KI
Experimental: The compounds of the present invention are irreversible inhibitors of KATII. Potency of irreversible inhibitors is best characterized by kinact/KI (See Copeland, R. A.; “Evaluation of Enzyme Inhibitors in Drug Discovery,” Wiley, 2005).
Test compounds were dissolved in 100% DMSO and diluted to the required concentrations in 100% DMSO. An additional aqueous dilution was made so that the compound at 3× final concentration was 1.0% DMSO in the assay specific buffer. Compounds were tested at 11 concentrations. Final DMSO concentrations in the assay plate were equal to 0.33%.
KATII enzyme activity was followed by measuring the loss of absorbance of the L-KYN substrate at an absorbance wavelength of 370 nm. The KATII assays were run in a 384 well format at a final volume of 30 μL using 150 mM Tris Acetate buffer (pH7.0), 1 mM L-KYN,1 mM α-ketoglutaric acid, 70 μM PLP, 0.1% BGG and either 30 nM human KATII enzyme or 5 nM rat KATII enzyme KATII enzyme. Compound was diluted in 100% DMSO and spotted prior to the addition of the other reagents. Enzyme was always added last. Assay plates were sealed around the edges with tape and immediately read on a SpectraMax plate reader at an absorbance wavelength of 370 nm. The SpectraMax plate reader was set up to read every 5 min for 16 hours.
The following steps are taken to ensure consistent production of kinetic read data: • 1. A 10 μL aliquot of the compound dilutions (described above in compound preparation) was added to the assay plate by hand followed by a quick spin to ensure compound was collected at bottom of well. • 2. A 10 μL aliquot of substrate mix containing the L-KYN, a-ketoglutaric acid and PLP was then added to the assay plate via a Multidrop instrument. • 3. Finally, a 10 μL aliquot of a 3× concentration of enzyme stock soluton was added last to initiate the reaction via a Multidrop instrument. • 4. The microplate lid was placed onto the assay plate and taped to seal in humidity, and the assay plate was put into the SpectraMax reader. A quick vibration on the plate platform was done to ensure mixing, and the absorbance was read (wavelength of 370 nm) every 5 min over 16 h at room temperature. Determination of Potencies (kinact/Kl Values)
The direct substrate absorbance loss assay described above was performed for the determination of potencies (kinact/Kl values). The overall potency, kinact/K1 values, were determined using the general approach described by M. Mileni et al., Proc. Natl. Acad. Sci. USA 2008, 105 12820-12824 and K. Ahn et al. Chem. Biol. 2009, 16, 411-420. Reaction progress curves (decrease in A370 nm with time) were obtained in the presence of eleven concentrations of inhibitor with top dose at […]. A null inhibitor control is always included. Absorbance read data were collected for 16 hours at 5 minute intervals. […] Each progress curve was fit to a one phase exponential decay model (equation 1) to determine kobserved (kobs) values at each inhibitor concentration, where At is absorbance at time t, A0 is the absorbance at t=infinite, A1 is a total absorbance change (the absorbance difference between t=0 and t=infinite), and kobs is the first order rate constant for enzyme inactivation. […] When [I]<<K1, equation 2 is simplified to equation 3, where the kinact/Kl is calculated from the slope, kinact/[Kl(1+[S]/Km)], which is obtained from the kobs vs [I] linear regression fit. […]

[3] = Pharmacokinetics Studies in Dog; type: in vivo; set-up: AUC/dose: unit not given beside the values; settings: dogs; for AUC / C0 / clearance / half-life / Cmax: male, beagle, dog, plasma
Experimental: Pharmacokinetics Studies in Dog Test substances (Examples 2-3) were administered by oral gavage or IV administration to groups of two dogs. The two male dogs were beagles obtained from Marshal Farms, weighing from about 9 to about 12 kg at start of treatment and ranging in age between approximately 4 to approximately 6 years. Blood samples were taken times of 0.25, 0.5, 1, 2, 4, 7, and 24 h after administration and submitted to analysis for the drug substance using an LC-MS-MS assay. Pharmacokinetic parameters derived from the plasma analytical data were determined using Watson 7.2.003.

[4] = biological target: human KAT II (hKAT II) enzyme (Homo sapiens, UniProt Q8N5Z0); experiment: Human KAT II Inhibition Spectra Assay; type: biochemical
Experimental: Human KAT II Inhibition Spectra Assay Formation of kynurenic acid (KYNA) is indirectly assessed by a decrease in light absorbance at 370 nm (OD370) as the L-kynurenine (KYN) substrate is converted by the human KAT II (hKAT II) enzyme into KYNA. An inhibitor would therefore inhibit the decrease in OD370. The protocol was performed by placing the following reagents into a Costar 384 well black plate (30 μL total assay volume/well): • 10 μL of 3× concentrated compound; • 10 μL of 3× concentrated substrate mix (BGG (Sigma G-5009); 3 mM L-Kynurenine in 150 mM Tris Acetate (Sigma K3750); 3 mM α-ketoglutaric acid in 150 mM Tris Acetate (Sigma K2010); and 210 μM pyridoxal 5-phosphate (PLP) in 150 mM Tris Acetate (Sigma 9255)); and • 10 μL of 3× concentrated enzyme (15 nM enzyme in 150 mM Tris Acetate with 0.3% bovine serum). Plates were sealed and incubated at 37° C. for 15-20 h before reading OD370 on a SpectraMax Plus plate reader. IC50s were generated by comparing the efficacy of compounds across a concentration range to inhibit a reduction in the OD370 value relative to assay wells with DMSO added in place of concentrated compound. Biological data for the Examples may be found Tables 1 and 2.

[5] = system: human hepatocytes; experiment: Human Hepatocyte Assay (HHEP); type: in vitro ADME; settings: 1 μM test compound, 0.5 million viable cells/mL
[6] = IV administration, dose = 0.5 mg/kg
[7] = oral administration, dose 5 mg/kg (Ex 3, 2), 2 mg/kg (Ex 5)
[8] = OD370 readout, 37° C., 15-20 h incubation, read-out: hKATII IC50

Chain of human KATII enzyme (Q8N5Z0 30-425): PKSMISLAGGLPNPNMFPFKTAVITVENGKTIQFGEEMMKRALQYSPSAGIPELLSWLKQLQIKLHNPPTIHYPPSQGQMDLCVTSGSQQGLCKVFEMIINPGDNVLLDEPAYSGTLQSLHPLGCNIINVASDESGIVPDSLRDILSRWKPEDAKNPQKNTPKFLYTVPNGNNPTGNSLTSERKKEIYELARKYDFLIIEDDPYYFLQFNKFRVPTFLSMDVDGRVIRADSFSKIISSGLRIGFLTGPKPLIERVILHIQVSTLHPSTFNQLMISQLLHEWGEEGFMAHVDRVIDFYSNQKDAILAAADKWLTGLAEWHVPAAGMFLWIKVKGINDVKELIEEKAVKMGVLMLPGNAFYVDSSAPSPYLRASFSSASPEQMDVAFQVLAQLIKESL
Chain of human KAT II (hKAT II) enzyme (Q8N5Z0 30-425): as above

Row | Structure (SMILES) | Reactive Metabolite Formation [1] | kinact/KI [2] | AUC/dose [3, 6] | AUC/dose [3, 7] | Cmax/dose [3, 7] | AUC [3, 6] | C0 [3, 6] | clearance [3, 6] | half-life [3, 6] | AUC [3, 7] | Cmax [3, 7] | half-life [3, 7] | IC50 [4] | HHEP CLint, app [5] | IC50 [4, 8] | kinact/KI ([2]; 30 nM human KATII enzyme, room temperature)
1 | CC(C)Oc1ccc2c(c1)N(O)C(=O)[C@@H](N)C2 [Example 5, (3S)-3-Amino-1-hydroxy-7-isopropoxy-3,4-dihydroquinolin-2(1H)-one, HCl Salt] | Yes | 17100 M⁻¹ s⁻¹ | 436 | 9.3 | 9.8 | 218 ng·h/mL | 265 ng/mL | 38.7 mL/min/kg | 36 min | 18.6 ng·h/mL | 19.6 ng/mL | 27.6 min | 32 nM | 44.7 μL/min/million |  | 
2 | N[C@H]1Cc2ccccc2N(O)C1=O [Example 4, (3S)-3-Amino-1-hydroxy-3,4-dihydroquinolin-2(1H)-one] |  | 21500 M⁻¹ s⁻¹ |  |  |  |  |  |  |  |  |  |  |  | 39.6 μL/min/million | 27 nM | 
3 | COCCOc1ccc2c(c1)N(O)C(=O)[C@@H](N)C2 [Example 3, (3S)-3-Amino-1-hydroxy-7-(2-methoxyethoxy)-3,4-dihydroquinolin-2(1H)-one, HCl Salt] | No |  | 388 | 31.2 | 39.6 | 194 ng·h/mL | 446 ng/mL | 43.4 mL/min/kg | 54 min | 156 ng·h/mL | 198 ng/mL | 63 min |  | 30.1 μL/min/million | 22 nM | 22300 M⁻¹ s⁻¹
4 | N#Cc1cccc2c1N(O)C(=O)C(N)C2 (stereo not shown) [Example 6, 3-Amino-1-hydroxy-2-oxo-1,2,3,4-tetrahydroquinoline-8-carbonitrile, HCl Salt] |  |  |  |  |  |  |  |  |  |  |  |  |  |  | 30 nM | 
5 | N#Cc1ccc2c(c1)N(O)C(=O)[C@@H](N)C2 [Example 1, (3S)-3-Amino-1-hydroxy-2-oxo-1,2,3,4-tetrahydroquinoline-7-carbonitrile, HCl Salt] |  | 46200 M⁻¹ s⁻¹ |  |  |  |  |  |  |  |  |  |  |  | 24.8 μL/min/million | 19 nM | 
6 | COC[C@H](C)Oc1ccc2c(c1)N(O)C(=O)[C@@H](N)C2 [Example 2, (3S)-3-Amino-1-hydroxy-7-[(1S)-2-methoxy-1-methylethoxy]-3,4-dihydroquinolin-2(1H)-one, HCl Salt] | No | 25100 M⁻¹ s⁻¹ | 370 | 39 | 46 | 185 ng·h/mL | 352 ng/mL | 44.9 mL/min/kg | 30 min | 195 ng·h/mL | 229 ng/mL | 137 min |  | 19.8 μL/min/million | 18 nM | 
